Data reported in ChEMBL document CHEMBL5584244, “Discovery of novel pyrrolo[2,1-c][1,4]benzodiazepine-3,11-dione (PBD) derivatives as selective HDAC6 inhibitors for the efficient treatment of idiopathic pulmonary fibrosis (IPF) in vitro and in vivo” (Eur J Med Chem, 2024).
Calls of active or inactive are those of the source. The calls are words filed in the database; no cut-off is given here.

How the values were obtained:
[1] = target: T1, Histone deacetylase 7 (Homo sapiens, UniProt Q8WUI4); test: Inhibition of N-terminal GST-tagged recombinant human HDAC7 (518 to end residues) expressed in baculovirus expression system using Boc-Lys (Tfa)-AMC as substrate incubated for 120 mins by fluorescence analysis
T1 sequence (Q8WUI4 whole entry): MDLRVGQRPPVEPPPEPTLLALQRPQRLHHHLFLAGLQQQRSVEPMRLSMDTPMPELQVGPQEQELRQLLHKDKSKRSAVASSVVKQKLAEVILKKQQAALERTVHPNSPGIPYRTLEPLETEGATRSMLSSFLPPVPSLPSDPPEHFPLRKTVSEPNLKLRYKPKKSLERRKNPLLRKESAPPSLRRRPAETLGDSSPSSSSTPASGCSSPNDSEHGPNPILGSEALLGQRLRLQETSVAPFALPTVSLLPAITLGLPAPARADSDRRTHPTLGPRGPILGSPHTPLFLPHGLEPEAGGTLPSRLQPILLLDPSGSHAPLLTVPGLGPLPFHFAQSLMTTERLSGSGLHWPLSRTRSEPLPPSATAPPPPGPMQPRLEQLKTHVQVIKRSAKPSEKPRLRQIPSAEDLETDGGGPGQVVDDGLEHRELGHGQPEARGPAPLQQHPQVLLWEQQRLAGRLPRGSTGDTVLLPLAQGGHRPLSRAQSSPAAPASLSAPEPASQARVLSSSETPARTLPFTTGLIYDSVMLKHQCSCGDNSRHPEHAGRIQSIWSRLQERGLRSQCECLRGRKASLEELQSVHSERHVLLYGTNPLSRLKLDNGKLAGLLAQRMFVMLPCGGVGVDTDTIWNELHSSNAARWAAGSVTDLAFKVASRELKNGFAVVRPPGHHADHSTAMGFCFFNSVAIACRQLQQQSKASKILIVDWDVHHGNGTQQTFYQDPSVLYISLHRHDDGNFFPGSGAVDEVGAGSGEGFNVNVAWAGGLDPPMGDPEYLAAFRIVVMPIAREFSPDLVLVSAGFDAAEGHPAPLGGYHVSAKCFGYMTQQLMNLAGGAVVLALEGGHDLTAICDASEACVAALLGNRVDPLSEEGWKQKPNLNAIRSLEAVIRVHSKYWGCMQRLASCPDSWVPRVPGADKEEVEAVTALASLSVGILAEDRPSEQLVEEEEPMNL

[2] = target: T2, Polyamine deacetylase HDAC10 (Homo sapiens, UniProt Q969S8); test: Inhibition of N-terminal FLAG-tagged recombinant human HDAC10 (2 to 631 residues) expressed in baculovirus sf9 insect cells expression system using Boc-Lys (Ac)-AMC as substrate incubated for 120 mins by fluorescence analysis
T2 sequence (Q969S8 whole entry): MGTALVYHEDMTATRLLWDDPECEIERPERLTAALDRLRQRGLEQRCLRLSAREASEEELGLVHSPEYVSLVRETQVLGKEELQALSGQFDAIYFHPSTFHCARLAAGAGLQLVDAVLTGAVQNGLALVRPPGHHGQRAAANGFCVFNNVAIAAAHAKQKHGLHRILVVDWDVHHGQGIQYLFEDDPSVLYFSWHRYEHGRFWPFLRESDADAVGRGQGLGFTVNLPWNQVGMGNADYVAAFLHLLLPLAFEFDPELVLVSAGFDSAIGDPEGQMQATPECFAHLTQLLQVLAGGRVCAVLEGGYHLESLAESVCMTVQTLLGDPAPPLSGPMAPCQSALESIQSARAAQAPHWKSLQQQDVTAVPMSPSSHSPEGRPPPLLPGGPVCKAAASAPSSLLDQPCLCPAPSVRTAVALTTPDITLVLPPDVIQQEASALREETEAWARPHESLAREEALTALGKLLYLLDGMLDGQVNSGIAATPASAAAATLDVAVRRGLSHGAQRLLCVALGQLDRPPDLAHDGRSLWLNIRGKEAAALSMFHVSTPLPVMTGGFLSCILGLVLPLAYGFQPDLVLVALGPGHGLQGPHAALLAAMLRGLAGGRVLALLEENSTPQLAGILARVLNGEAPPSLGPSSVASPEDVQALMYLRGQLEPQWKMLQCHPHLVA

[3] = Cytotoxicity against HELF cells assessed as reduction in viability at 2.5 to 10 uM after 48 hrs by MTT assay; format: toxicity, cell-based; conditions: human, dose 2.5-10 µM
[4] = Cytotoxicity against HELF cells assessed as reduction in viability at 1 to 300 uM after 48 hrs under without FBS condition by MTT assay; format: toxicity, cell-based; conditions: human, dose 1-300 µM
[5] = system: HELF; test: Anti-pulmonary fibrosis activity against TGF-beta1-induced HELF cells assessed as reduction in alpha-SMA protein expression incubated for 48 hrs by Western blot analysis; format: functional, cell-based; conditions: Homo sapiens, dose 2.5-10 µM
[6] = Stability of compound in human plasma assessed as remaining parent compound at 2 uM incubated for 120 mins by LC-MS/MS analysis; format: ADME, cell-free; conditions: read-out: Stability
[7] = Half life in human plasma at 2 uM by LC-MS/MS analysis; format: ADME, cell-free
[8] = Stability of compound in human liver microsomes assessed as remaining parent compound at 100 uM incubated after 60 mins in presence of NADPH by LC-MS/MS analysis; format: ADME, Microsome; conditions: read-out: Stability
[9] = system: Mus musculus; test: Anti-pulmonary fibrosis activity in bleomycin-induced C57BL/6 mouse model of pulmonary fibrosis assessed as inhibition of HDAC activity in lung at 50 to 100 mg/kg, ip for 3 weeks by fluorescence based microplate reader analysis; format: functional, organism-based; conditions: dose 50-100 mg/kg
[10] = system: Mus musculus; test: Anti-pulmonary fibrosis activity in bleomycin-induced C57BL/6 mouse model of pulmonary fibrosis assessed as decrease in collapse of the alveolar cavity in lung at 50 to 100 mg/kg, ip for 3 weeks by Masson trichrome staining based microscopic analysis; format: functional, organism-based; conditions: dose 50-100 mg/kg

IC50 [1]: 8.94 nM
IC50 [2]: 1320 nM
remaining at 2 h, 2 µM [6]: 92.3%
half-life at 2 µM [7]: > 4.82 h
remaining at 1 h, 100 µM [8]: 95.7%
SMILES: CC(=O)O.O=C(NO)c1ccc(CN2C(=O)[C@@H]3CCCN3Cc3ccccc32)cc1
Activity [3]: Non-Toxic
Activity [4]: Toxic
Activity [5]: Dose-Dependent Effect
inhibition [9]: Active
Activity [10]: inactive
